SMILES strings stand for the structures.

This test relates to mitochondrial fatty acid oxidation (rat heart mitochondria). Nature of the test: Palmitoyl CoA oxidation in isolated rat heart mitochondria. The test is classed as biochemical. As to conditions: 100 μM compound; 15 min at 30° C; DMSO control. Here is the method: Compounds of this invention were evaluated in a rat heart mitochondiral assay as set forth below.
Rat heart mitochondria were isolated by the method of Nedergard and Cannon (methods in Enzymol. 55, 3, 1979).
Palmitoyl CoA oxidation—The Palmityl CoA oxidation was carried out in a total volume of 100 micro liters containing the following agents: 110 mM KCl, 33 mM Tris buffer at pH 8, 2 mM KPi, 2 mM MgCl2, 0.1 mM EDTA, 14.7 microM defatted BSA, 0.5 mM malic acid, 13 mM carnitine, 1 mM ADP, 52 micrograms of mitochondrial protein, and 16 microM 1-C14 palmitoyl CoA (Sp. Activity 60 mCi/mmole; 20 microCi/ml, using 5 microliters per assay). The compounds of this invention were added in a DMSO solution at the following concentrations: 100 microM, 30 microM, and 3 microM. In each assay, a DMSO control was used. After 15 min at 30° C., the enzymatic reaction was centrifuged (20,000 g for 1 min), and 70 microliters of the supernatant was added to an activated reverse phase silicic acid column (approximately 0.5 ml of silicic acid). The column was eluted with 2 ml of water, and 0.5 ml of the eluent was used for scintillation counting to determine the amount of C^14 trapped as C^14 bicarbonate ion.
With `Cc1ccccc1NC(=O)CN1CCN(C[C@H](O)COc2ccccc2F)[C@@H](C)C1` [Compound 37, 2-{(3S)-4-[(2S)-3-(2-fluorophenoxy)-2-hydroxypropyl]-3-methylpiperazinyl}-N-(2-methylphenyl)acetamide], the “Inhibition of mitochondrial fatty acid oxidation using palmitoyl CoA as substrate - % of Control” value (from here on “Inhibition … - % of Control”) is listed as 55%.

In the case of `C[C@H]1CN(CC(=O)Nc2ccc(N(C)C)cc2)CCN1C[C@H](O)COc1ccccc1F` [Compound 41, 2-{(3S)-4-[(2S)-3-(2-fluorophenoxy)-2-hydroxypropyl]-3-methylpiperazinyl}-N-[4-(dimethylamino)phenyl]acetamide], the “Inhibition … - % of Control” value is given as 64%. To `COc1cc(NC(=O)CN2CCN(C[C@H](O)COc3ccccc3F)[C@@H](C)C2)cc(C(F)(F)F)c1` [Compound 28, 2-{(3S)-4-[(2S)-3-(2-fluorophenoxy)-2-hydroxypropyl]-3-methylpiperazinyl}-N-(5-methoxy-3-(trifluoromethyl)phenyl]acetamide] belongs 59%; to `Cc1ccc(NC(=O)CN2CCN(C[C@H](O)COc3ccccc3F)[C@@H](C)C2)cc1` [Compound 48, 2-{(3S)-4-[(2S)-3-(2-fluorophenoxy)-2-hydroxypropyl]-3-methylpiperazinyl}-N-(4-methylphenyl)acetamide], 61%. With `Cc1cccc(NC(=O)CN2CCN(C[C@H](O)COc3ccccc3F)[C@@H](C)C2)c1` [Compound 49, 2-{(3S)-4-[(2S)-3-(2-fluorophenoxy)-2-hydroxypropyl]-3-methylpiperazinyl}-N-(3-methylphenyl)acetamide], the “Inhibition … - % of Control” value came out at 66%. With `C[C@H]1CN(CC(=O)Nc2ccc(C#N)cc2)CCN1C[C@H](O)COc1ccccc1F` [Compound 51, 2-{(3S)-4-[(2S)-3-(2-fluorophenoxy)-2-hydroxypropyl]-3-methylpiperazinyl}-N-(4-cyanophenyl)acetamide], the “Inhibition … - % of Control” value was found to be 99%. Take `C[C@H]1CN(CC(=O)Nc2cccc3ccccc23)CCN1C[C@H](O)COc1ccccc1F` [Compound 30, 2-{(3S)-4-[(2S)-3-(2-fluorophenoxy)-2-hydroxypropyl]-3-methylpiperazinyl}-N-naphthylacetamide]: the “Inhibition … - % of Control” value came to 16%.

With `C[C@H]1CN(CC(=O)Nc2cc(Cl)cc(Cl)c2)CCN1C[C@H](O)COc1ccccc1F` [Compound 46, 2-{(3S)-4-[(2S)-3-(2-fluorophenoxy)-2-hydroxypropyl]-3-methylpiperazinyl}-N-(3,5-dichlorophenyl)acetamide], the “Inhibition … - % of Control” value was 7%. Regarding `C[C@H]1CN(CC(=O)Nc2ccccc2Cl)CCN1C[C@H](O)COc1ccccc1F` [Compound 34, 2-{(3S)-4-[(2S)-3-(2-fluorophenoxy)-2-hydroxypropyl]-3-methylpiperazinyl}-N-(2-chlorophenyl)acetamide], the “Inhibition … - % of Control” value was 48%. Consider `COc1ccc(NC(=O)CN2CCN(C[C@H](O)COc3ccccc3F)[C@@H](C)C2)cc1` [Compound 47, 2-{(3S)-4-[(2S)-3-(2-fluorophenoxy)-2-hydroxypropyl]-3-methylpiperazinyl}-N-(4-methoxyphenyl)acetamide], for which the “Inhibition … - % of Control” value was found to be 80%. For the compound `C[C@H]1CN(CC(=O)Nc2ccc3c(c2)CCC3)CCN1C[C@H](O)COc1ccccc1F` [Compound 29, 2-{(3S)-4-[(2S)-3-(2-fluorophenoxy)-2-hydroxypropyl]-3-methylpiperazinyl}-N-indan-5-ylacetamide], the “Inhibition … - % of Control” value came out at 51%. In the case of `C[C@H]1CN(CC(=O)Nc2cccc(Cl)c2)CCN1C[C@H](O)COc1ccccc1F` [Compound 45, 2-{(3S)-4-[(2S)-3-(2-fluorophenoxy)-2-hydroxypropyl]-3-methylpiperazinyl}-N-(3-chlorophenyl)acetamide] it was 58%.

Consider `COc1ccc(NC(=O)CN2CCN(C[C@H](O)COc3ccccc3F)[C@@H](C)C2)cc1OC` [Compound 60, 2-{(3S)-4-[(2S)-3-(2-fluorophenoxy)-2-hydroxypropyl]-3-methylpiperazinyl}-N-(3,4-dimethoxyphenyl)acetamide], for which the “Inhibition … - % of Control” value turned out to be 81%. `C[C@H]1CN(CC(=O)Nc2ccc(Cl)cc2F)CCN1C[C@H](O)COc1ccccc1F` [Compound 61, 2-{(3S)-4-[(2S)-3-(2-fluorophenoxy)-2-hydroxypropyl]-3-methylpiperazinyl}-N-(4-chloro-2-fluorophenyl)acetamide]: the “Inhibition … - % of Control” value is 65%. For the compound `COc1cc(NC(=O)CN2CCN(C[C@H](O)COc3ccccc3F)[C@@H](C)C2)cc(OC)c1` [Compound 56, 2-{(3S)-4-[(2S)-3-(2-fluorophenoxy)-2-hydroxypropyl]-3-methylpiperazinyl}-N-(3,5-dimethoxyphenyl)acetamide], the “Inhibition … - % of Control” value is given as 83%.

As to `COc1ccc(NC(=O)CN2CCN(C[C@H](O)COc3ccccc3F)[C@@H](C)C2)c(OC)c1` [Compound 42, 2-{(3S)-4-[(2S)-3-(2-fluorophenoxy)-2-hydroxypropyl]-3-methylpiperazinyl}-N-(2,4-dimethoxyphenyl)acetamide], the “Inhibition … - % of Control” value is 68%. Take `C[C@H]1CN(CC(=O)Nc2ccccc2)CCN1C[C@H](O)COc1ccccc1F` [Compound 33, 2-{(3S)-4-[(2S)-3-(2-fluorophenoxy)-2-hydroxypropyl]-3-methylpiperazinyl}-N-phenylacetamide]: the “Inhibition … - % of Control” value was 63%.

On to `C[C@H]1CN(CC(=O)Nc2ccc(Cl)c(Cl)c2)CCN1C[C@H](O)COc1ccccc1F` [Compound 43, 2-{(3S)-4-[(2S)-3-(2-fluorophenoxy)-2-hydroxypropyl]-3-methylpiperazinyl}-N-(3,4-dichlorophenyl)acetamide], for which the “Inhibition … - % of Control” value is 19%. In the case of `Cc1ccc(NC(=O)CN2CCN(C[C@H](O)COc3ccccc3F)[C@@H](C)C2)c(Cl)c1` [Compound 35, 2-{(3S)-4-[(2S)-3-(2-fluorophenoxy)-2-hydroxypropyl]-3-methylpiperazinyl}-N-(2-chloro-4-methylphenyl)acetamide], the “Inhibition … - % of Control” value was found to be 45%. Regarding `C[C@H]1CN(CC(=O)Nc2ccc(Cl)cc2)CCN1C[C@H](O)COc1ccccc1F` [Compound 44, 2-{(3S)-4-[(2S)-3-(2-fluorophenoxy)-2-hydroxypropyl]-3-methylpiperazinyl}-N-(4-chlorophenyl)acetamide], the “Inhibition … - % of Control” value is recorded as 81%.

Turning to `COc1cc(Cl)c(C)cc1NC(=O)CN1CCN(C[C@H](O)COc2ccccc2F)[C@@H](C)C1` [Compound 40, 2-{(3S)-4-[(2S)-3-(2-fluorophenoxy)-2-hydroxypropyl]-3-methylpiperazinyl}-N-(4-chloro-2-methoxy-5-methylphenyl)acetamide], the “Inhibition … - % of Control” value stood at 23%.

These data come from patent US6677336B2, “Substituted piperazine compounds” (CV Therapeutics, Inc., priority 2000, dated 2004).
